Measured values as given in article PMC10180076, “Novel Biologically Active N-Substituted Benzimidazole Derived Schiff Bases: Design, Synthesis, and Biological Evaluation” (Molecules, 2023).
pIC50: −log10 of the molar value. In brackets after ≈: the same amount, converted by molar mass. Where two headings read alike, the source gives them in different places.

Legend:
S. aureus ATCC 29213 = test: Broth microdilution MIC, S. aureus; format: cell-based; conditions: Staphylococcus aureus, ATCC29213; read-out: MIC against S. aureus
Protocol: (§1) Selected bacterial strains were Gram-negative E. coli, K. pneumoniae, A. baumannii and P. aeruginosa and Gram-positive S. aureus, S. pneumoniae, and E. faecalis. The synthesized compounds were prepared as 10 mM DMSO solutions and tested in a final concentration range of 0.2–100 µM [39].
(§2) Broth microdilution testing was performed according to CLSI (Clinical Laboratory Standards Institute) guidelines. The MIC (minimal inhibitory concentration) value was defined as the last tested concentration of the compound at which there was no visible growth of bacteria. Inoculums for each microorganism were prepared using the direct colony suspension method, where broth solutions that achieved turbidity equivalent to 0.5 McFarland standard were additionally diluted 100× with Ca adjusted MH media (Becton Dickinson, Franklin Lakes, NJ, USA). All of the test plates were incubated for 16–24 h at 37 °C.
(§3) Methods for dilution of antimicrobial susceptibility tests for bacteria that grow aerobically followed M07, 11th edition, 2018, and Clinical and Laboratory Standards Institute (CLSI) guidelines. Performance standards for antimicrobial susceptibility testing followed the M100, 28th edition, 2018.

E. faecalis ATCC 29212 = test: Broth microdilution MIC, E. faecalis; format: cell-based; conditions: Enterococcus faecalis, ATCC29212; read-out: MIC against E. faecalis
Protocol: as §1, §2, §3

E. coli efflux del = test: microbe, parasite or virus in culture; format: cell-based; conditions: for MIC E. coli efflux del: Table 2 prints no unit, μM for compounds, antibiotics tested at 0.125–64 µg/mL
Protocol: as §1, §2, §3

[1] = test system: K. pneumoniae ATCC 700603; test: Broth microdilution MIC, K. pneumoniae; format: cell-based; conditions: Klebsiella pneumoniae, ATCC700603; read-out: MIC against K. pneumoniae
Protocol: as §1, §2, §3

LN-229, glioblastoma = test: Proliferation assay (MTS, 72 h), LN-229; format: cell-based, human; conditions: Homo sapiens, LN-229
Text: (§4) Human cancer cells used in this manuscript, namely Capan-1, HCT-116, NCI-H460, LN-229, HL-60, K-562, and Z-138, were acquired from the American Type Culture Collection (ATCC, Manassas, VA, USA), while the DND-41 cell line was purchased from the Deutsche Sammlung von Mikroorganismen und Zellkulturen (DSMZ Leibniz-Institut, Braunschweig, Germany). Culture media were purchased from Gibco Life Technologies, Merelbeke, Belgium, and supplemented with 10% fetal bovine serum (HyClone, Cytiva, Marlborough, MA, USA). Vincristine and docetaxel, which were used as the reference inhibitors, were purchased from Selleckchem (Munich, Germany). Stock solutions were prepared in DMSO.
(§5) Adherent cell lines LN-229, HCT-116, and NCI-H460 and Capan-1 cells were seeded at a density between 500 and 1500 cells per well, in 384-well tissue culture plates (Greiner, Kremsmünster, Austria). After overnight incubation, the cells were treated with seven different concentrations of the test compounds, ranging from 100 to 0.006 µM.
(§6) Suspension cell lines HL-60, K-562, Z-138, and DND-41 were seeded at densities ranging from 2500 to 5500 cells per well in 384-well culture plates containing the test compounds at the same concentration points. The cells were incubated for 72 h with the compounds and were then analyzed using the CellTiter 96® AQueous One Solution Cell Proliferation Assay (MTS) reagent (Promega, Madison, WI, USA) according to the manufacturer’s instructions. […] The compounds were tested in two independent experiments.

[2] = test system: Capan-1, pancreatic adenocarcinoma; test: Proliferation assay (MTS, 72 h), Capan-1; format: cell-based, human; conditions: Homo sapiens, CAPAN-1
Text: as §4, §5, §6

[3] = test system: HCT-116, colorectal carcinoma; test: Proliferation assay (MTS, 72 h), HCT-116; format: cell-based, human; conditions: Homo sapiens, HCT-116
Text: as §4, §5, §6

NCI-H460, lung carcinoma = test: Proliferation assay (MTS, 72 h), NCI-H460; format: cell-based, human; conditions: Homo sapiens, NCI-H460
Text: as §4, §5, §6

[4] = test system: DND-41, acute lymphoblastic leukemia; test: Proliferation assay (MTS, 72 h), DND-41; format: cell-based, human; conditions: Homo sapiens, DND41
Text: as §4, §5, §6

[5] = test system: HL-60, acute myeloid leukemia; test: Proliferation assay (MTS, 72 h), HL-60; format: cell-based, human; conditions: Homo sapiens, HL-60
Text: as §4, §5, §6

[6] = test system: K-562, chronic myeloid leukemia; test: Proliferation assay (MTS, 72 h), K-562; format: cell-based, human; conditions: Homo sapiens, K562
Text: as §4, §5, §6

[7] = test system: Z-138, non-Hodgkin lymphoma; test: Proliferation assay (MTS, 72 h), Z-138; format: cell-based, human; conditions: Homo sapiens, Z-138
Text: as §4, §5, §6

[8] = test system: human coronavirus HCoV-229E; test: organism not typed; format: cell-based; conditions: HEL 299 cells, 100 CCID50, MTS; read-out: Antiviral Activity (EC50/μM) HCoV 229E HEL 299
[9] = test system: human coronavirus HCoV-OC43; test: microbe, parasite or virus in culture; format: cell-based; conditions: Betacoronavirus 1, OC43; HEL 299 cells, 100 CCID50, MTS; read-out: Antiviral Activity (EC50/μM) HCoV OC43 HEL 299
[10] = test system: human coronavirus HCoV-NL63; test: Antiviral CPE reduction assay, HCoV-NL63 in Huh-7; format: cell-based; conditions: Huh-7 cells, 100 CCID50, MTS
[11] = test system: influenza A/H1N1 (A/Ned/378/05); test: Antiviral CPE reduction assay, influenza A/H1N1 in MDCK; format: cell-based; conditions: Influenza A virus, MDCK cells, 100 CCID50, MTS
[12] = test system: influenza A/H3N2 (A/HK/7/87); test: Antiviral CPE reduction assay, influenza A/H3N2 in MDCK; format: cell-based; conditions: Influenza A virus, MDCK cells, 100 CCID50, MTS
[13] = test system: influenza B (B/Ned/537/05); test: Antiviral CPE reduction assay, influenza B in MDCK; format: cell-based; conditions: Influenza B virus; MDCK cells, 100 CCID50, MTS
[14] = test system: respiratory syncytial virus A (Long); test: Antiviral CPE reduction assay, RSV A in HEL 299; format: cell-based; conditions: human respiratory syncytial virus; HEL 299 cells, 100 CCID50, MTS
[15] = test system: herpes simplex virus-1 (HSV-1 KOS); test: Antiviral CPE reduction assay, HSV-1 KOS in HEL 299; format: cell-based; conditions: Human alphaherpesvirus 1; HEL 299 cells, 100 CCID50, MTS
[16] = test system: yellow fever virus (YFV 17D); test: microbe, parasite or virus in culture; format: cell-based; conditions: Huh-7, read-out: Antiviral Activity (EC50/μM) YFV 17D Huh-7
Zika virus (Mr776) = test: Antiviral CPE reduction assay, Zika virus in Huh-7; format: cell-based; conditions: Huh-7 cells, 100 CCID50, MTS
sindbis virus = test: Antiviral CPE reduction assay, Sindbis virus in Huh-7; format: cell-based; conditions: Huh-7 cells, 100 CCID50, MTS
human cancer cell lines = test: Proliferation assay (MTS, 72 h), range over several cancer cell lines; format: cell-based
Text: as §4
Adherent cell lines LN-229, HCT-116, and NCI-H460 and Capan-1 cells were seeded at a density between 500 and 1500 cells per well, in 384-well tissue culture plates (Greiner, Kremsmünster, Austria). […]
Suspension cell lines HL-60, K-562, Z-138, and DND-41 were seeded at densities ranging from 2500 to 5500 cells per well in 384-well culture plates containing the test compounds at the same concentration points. The cells were incubated for 72 h with the compounds and were then analyzed using the CellTiter 96® AQueous One Solution Cell Proliferation Assay (MTS) reagent (Promega, Madison, WI, USA) according to the manufacturer’s instructions. […]

in vitro [17] = conditions: human
in vitro [18] = conditions: human; remark: listed apart in the source
in vitro [19] = conditions: dog

SMILES	MIC (S. aureus ATCC 29213)	MIC (E. faecalis ATCC 29212)	MIC E. coli efflux del (E. coli efflux del)	IC50 (LN-229, glioblastoma)	IC50 [2]	IC50 [3]	IC50 (NCI-H460, lung carcinoma)	IC50 [4]	IC50 [5]	IC50 [6]	IC50 [7]	EC50 [8]	EC50 [9]	EC50 [10]	EC50 [11]	EC50 [12]	EC50 [13]	EC50 [14]	EC50 [15]	melting point	further results
CCCCCCn1c(N)nc2ccccc21 [Compound 23, 2-Amino-1-hexylbenzimidazole]	16 µM (≈ 3.48 µg/mL)	32 µM (≈ 6.95 µg/mL)	32	45.2 µM	46.5 µM	57.4 µM	60.2 µM	47.7 µM	44.9 µM	46.7 µM	44.7 µM										MIC (E. coli efflux del; Escherichia coli, read-out: MIC against E. coli efflux dell): 32 µM (≈ 6.95 µg/mL); MIC [1]: 32 µM (≈ 6.95 µg/mL)
CCN(CC)c1ccc(/C=N/c2nc3ccc(C#N)cc3n2CC(C)C)c(O)c1 [Compound 31, (E)-2-((4-(Diethylamino)-2-hydroxybenzylidene)amino)-1-isobutyl-1H-benzo[d]imidazole-6-carbonitrile]				> 100 µM	32.8 µM	> 100 µM	> 100 µM	34.4 µM	47.6 µM	> 100 µM	> 100 µM	> 100 µM	> 100 µM	32 µM	> 100 µM	> 100 µM	> 100 µM	> 100 µM	> 100 µM	205 to 208 °C	EC50 [16]: > 100 µM; EC50 (Zika virus (Mr776)): > 100 µM; EC50 (sindbis virus): > 100 µM; pIC50 (human cancer cell lines; three cancer cell types, read-out: IC50, range over three cancer cell types): 4.32 to 4.48; CC50 (in vitro [17]): > 100 µM; CC50 (in vitro [18]): 85.7 µM; CC50 (in vitro [19]): 1.3 µM
Cn1c(/N=C/c2ccc([N+](=O)[O-])cc2)nc2ccc(C#N)cc21 [Compound 37, (E)-1-Methyl-2-((4-nitrobenzylidene)amino)-1H-benzo[d]imidazole-6-carbonitrile]	32 µM (≈ 9.77 µg/mL)		>64	> 100 µM	> 100 µM	> 100 µM	> 100 µM	> 100 µM	> 100 µM	> 100 µM	> 100 µM										
CCN(CC)c1ccc(/C=N/c2nc3ccccc3n2-c2ccccc2)c(O)c1 [Compound 40, (E)-5-(Diethylamino)-2-(((1-phenyl-1H-benzo[d]imidazol-2-yl)imino)methyl)phenol]				21.5 µM	2.4 µM	9.6 µM	43.7 µM	2.2 µM	1.1 µM	12.9 µM	4.4 µM									197 to 201 °C	pIC50 (human cancer cell lines; Capan-1, DND-41, HL-60 and Z-138 cancer cell lines, read-out: IC50, range over several cancer cell lines): 5.36 to 5.96
CCCCCCn1c(/N=C/c2ccc(N(C)C)cc2)nc2ccccc21 [Compound 42, (E)-4-(((1-Hexyl-1H-benzo[d]imidazol-2-yl)imino)methyl)-N,N-dimethylaniline]	32 µM (≈ 11.2 µg/mL)	32 µM (≈ 11.2 µg/mL)	64	> 100 µM	> 100 µM	> 100 µM	64.4 µM	> 100 µM	73.2 µM	90.8 µM	> 100 µM	34.7 µM	> 100 µM	> 100 µM	> 100 µM	> 100 µM	> 100 µM	> 100 µM	> 100 µM	231 to 234 °C	EC50 [16]: > 100 µM; EC50 (Zika virus (Mr776)): > 100 µM; EC50 (sindbis virus): > 100 µM; CC50 (in vitro [19]): 34.6 µM
